Reference: patent US20110178104A1, “Anti-Heparin Compounds” (POLYMEDIX INC., priority 2010, published 2011)
In brackets after ≈: the same amount, converted by molar mass. Several values for one entry are separate records, joined by “and”; a condition that tells them apart may be missing. Equal entries are not always repeated.

What was measured:
[1] = test system: isolated human erythrocytes; assay: cells; type: cell-based; conditions: human RBC, 1 hour at 37° C.; for EC50: Homo sapiens, Erythrocyte, 1 h, read-out: Hemolysis EC50
Procedure, shortened: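 Test agent was serially diluted two-fold over 0.48–1000 µg/ml and incubated for 1 h at 37 °C with shaking, using erythrocytes from pooled human blood diluted in Tris-buffered saline pH 7.4 (0.22% stock). Hemolysis was measured as supernatant absorbance at 405 nm. A four-parameter logistic equation gave EC50, and melittin served as the positive control.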

[2] = Cytotoxicity colorimetric assay, HepG2; type: cell-based, human; parameters: Cytotoxicity HepG2, percent printed in parentheses after the concentration: concentration or dose not given beside the values; conditions: human, HepG2 cells, one hour in serum-free media
Procedure, shortened: (§1)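 HepG2 cells (3×10^4/well, MEM + 10% FBS) and NIH/3T3 cells (2×10^4/well, DMEM + 10% BCS) were exposed to compound for 1 h in serum-free medium. Viability read by tetrazolium-to-formazan bioreduction after return to serum medium; EC50 from a four-parameter logistic fit.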

HepG2 cells = assay: Cytotoxicity colorimetric assay, HepG2; type: cell-based, human; parameters: Cytotoxicity HepG2, percent printed in parentheses after the concentration: concentration or dose not given beside the values; conditions: for Cytotoxicity HepG2, percent printed in parentheses after the concentration: at the concentration given
Procedure, shortened: as §1

Unfractionated heparin = assay: aPTT clotting assay, UFH 0.4 U/mL in plasma (Example 10); type: biochemical; conditions: unfractionated heparin 0.4 U/mL in plasma; aPTT clotting
Experimental: aPTT clotting Assay: Unfractionated heparin was mixed with plasma at a final concentration of 0.4 U/mL (or concentration which increases aPTT time to between 120 and 300 seconds). […] The ACL Elite Hemostasis analyzer (Beckman Coulter™) was used to add aPTT reagent (HemosIL SynthASil) to supplemented plasma. Clotting was initiated by addition of CaCl2 and time to clot was recorded.

UFH = assay: FXa amidolytic assay (Example 10), UFH; conditions: read-out: Heparin FXa uM EC50; UFH 0.03 units/mL; human antithrombin, bovine Factor Xa
enoxaparin [3] = assay: FXa amidolytic assay (Example 10), enoxaparin; conditions: read-out: Enox FXa EC50; enoxaparin 0.1 ug/ml; human antithrombin, bovine Factor Xa
tinzaparin = assay: FXa amidolytic assay (Example 10), tinzaparin; conditions: read-out: Tinzap FXa EC50; tinzaparin 0.1 ug/ml; human antithrombin, bovine Factor Xa
fondaparinux [4] = assay: FXa amidolytic assay (Example 10), fondaparinux; conditions: for EC50: read-out: Fondap FXa EC50, fondaparinux 0.02 μg/mL, human antithrombin, bovine Factor Xa
[5] = Cytotoxicity colorimetric assay, NIH/3T3; type: cell-based, mouse; conditions: mouse, NIH/3T3 cells, one hour in serum-free media
Experimental: (§2) This assay measures the bioreduction of a novel tetrazolium compound to a soluble formazan product by viable cells. HepG2 cells were seeded in 96 well plates at 3×10^4 cells/well in MEM medium with 10% fetal bovine serum (FBS) 24 hours prior to use. NIH/3T3 cells were seeded in 96 well plates at 2×10^4 cells/well in DMEM medium with 10% bovine calf serum (BCS) 24 hours prior to use. Cell monolayers were rinsed in serum-free media and incubated for one hour with test agent in serum-free media. After incubation, the media was replaced with serum supplemented media and live cells were measured using the Cell Titer 96 Aqueous […] Assay kit (Promega, Madison, Wis.). EC50 values were determined using a four parameter logistic equation: Y=Bottom+(Top-Bottom)/(1+10̂((LogEC50-X)*HillSlope)).

NIH/3T3 cells = assay: Cytotoxicity colorimetric assay, NIH/3T3; type: cell-based, mouse; conditions: for Cytotoxicity 3T3, percent printed in parentheses after the concentration: at the concentration given
Experimental: as §2

fondaparinux [6] = assay: In vivo neutralization of fondaparinux in the rat
Experimental: Compounds were selected to test fondaparinux neutralization in vivo. Rats were pre-treated with fondaparinux administered by IV injection at 0.5 mg/kg. The rats were then treated with a single IV injection of saline, protamine or the PMX compound. Blood was collected via the orbital sinus from three rats per group at the following time points: pre-dose, 1, 3, 10, 30 and 60 min. Plasma samples were prepared for analysis of anti-factor Xa activity using an AMEX Destiny Plus Coagulation Analyzer.

enoxaparin [7] = assay: In vivo neutralization of enoxaparin in the rat; conditions: compared with protamine
Experimental: Compounds were tested for their ability to neutralize enoxaparin coagulation inhibition in rats. Male Sprague-Dawley rats were used in this study (Charles River Laboratories). They were ten-weeks-old at the start of the study and their weights ranged from 319-362 g. Enoxaparin (2 mg/kg) was administered by IV injection to groups of six rats. After 3 min, saline, protamine or a test compound was administered by IV injection. Blood was collected before dosing with enoxaparin, and at 1, 3, 10, 30 and 60 min after dosing with the standard and test compounds. All treatments were dosed in a volume of 1 mL/kg. Blood was collected via the orbital sinus from three rats per group. At each time point, 1 mL of blood was collected from each animal into a single tube. The blood was analyzed using an AMEX Destiny Plus Coagulation Analyzer for activated partial thromboplastin time (APTT) and anti-Factor Xa (low-molecular weight).

Compound | EC50 (Unfractionated heparin) | EC50 (UFH) | EC50 (enoxaparin [3]) | EC50 (tinzaparin) | EC50 (fondaparinux [4]) | EC50 [1] | EC50 at 1 h [2] | Cytotoxicity HepG2, percent printed in parentheses after the concentration (HepG2 cells) | Hemolysis EC50 [1] | EC50 at 1 h [5] | Cytotoxicity 3T3, percent printed in parentheses after the concentration (NIH/3T3 cells) | reduction of Factor Xa (anti-factor Xa) levels after fondaparinux (fondaparinux [6]; fondaparinux 0.5 mg/kg IV, test agent 2 and 5 mg/kg IV) | in vivo efficacy versus fondaparinux (summary) (fondaparinux [6]; in vivo) | Potent LMWH-antagonists with superior anti-fondaparinux activity (summary) (fondaparinux [4]) | in vivo efficacy versus LMWH by anti-factor Xa activity (summary) (enoxaparin [7]) | Cytotoxicity HepG2 EC50 (HepG2 cells; one hour in serum-free media) | Cytotoxicity 3T3 EC50 (NIH/3T3 cells; one hour in serum-free media)
COc1ccc(NC(=O)[C@H](CCCCN)NC(=O)c2cc(NC(=O)[C@H](CCCCN)NC(=O)c3cc(NC(=O)[C@H](CCCCN)NC(=O)c4cc(NC(=O)[C@@H](N)Cc5c[nH]c6ccccc56)ccc4OC)ccc3OC)ccc2OC)cc1C(N)=O [Compound 246] | 2370 nM | 0.11 µM | 514 nM | 368 nM | 2540 nM | > 1000 µg/mL | 60 µg/mL (≈ 50.7 µM) | 80% |  |  |  |  |  |  |  |  | 
COc1ccc(NC(=O)[C@H](CCCCN)NC(=O)c2cc(NC(=O)[C@H](CCCCN)NC(=O)c3cc(NC(=O)[C@H](CCCCN)NC(=O)c4cc(NC(=O)[C@@H](N)CCCCN)ccc4OC)ccc3OC)ccc2OC)cc1C(=O)N[C@@H](Cc1ccccc1)C(=O)O [Compound 263] | 1250 nM | 0.179 µM | 376 nM | 352 nM | 1600 nM | > 1000 µg/mL | 255 µg/mL (≈ 200 µM) | 60% |  |  |  |  |  |  |  |  | 
COc1ccc(NC(=O)[C@@H](CCCNC(=N)N)NC(=O)c2cc(NC(=O)[C@@H](CCCNC(=N)N)NC(=O)c3cc(NC(=O)[C@@H](CCCNC(=N)N)NC(=O)c4cc(NC(=O)[C@H](N)CCCNC(=N)N)ccc4OC)ccc3OC)ccc2OCC(=O)O)cc1C(N)=O [Compound 281] | 1810 nM | 0.108 µM | 129 nM | 111 nM | 441 nM | > 1000 µg/mL | 1000 µg/mL (≈ 780 µM) | 50% |  |  |  |  |  |  |  |  | 
COc1ccc(NC(=O)[C@H](CCCNC(=N)N)NC(=O)c2cc(NC(=O)[C@H](CCCNC(=N)N)NC(=O)c3cc(NC(=O)[C@H](CCCNC(=N)N)NC(=O)c4cc(NC(=O)[C@@H](N)CCCNC(=N)N)ccc4OC)ccc3OC)ccc2OCC(=O)O)cc1C(N)=O [Compound 287] | 1980 nM |  | 114 nM | 108 nM | 402 nM |  | 1000 µg/mL (≈ 780 µM) | 30% | no significant decrease | 1000 µg/mL (≈ 780 µM) | 50% |  |  |  |  |  | 
COc1ccc(NC(=O)[C@@H](CCCNC(=N)N)NC(=O)c2cc(NC(=O)[C@@H](CCCNC(=N)N)NC(=O)c3cc(NC(=O)[C@@H](CCCNC(=N)N)NC(=O)c4cc(NC(C)=O)ccc4OC)ccc3OC)ccc2OC)cc1C(=O)N[C@H](Cc1ccc(O)cc1)C(=O)O [Compound 297] | 7120 nM | 0.215 µM | 293 nM | 318 nM | 225 nM | > 1000 µg/mL | 300 µg/mL (≈ 233 µM) | 60% |  |  |  |  |  |  |  |  | 
COc1ccc(NC(=O)[C@H](CCCNC(=N)N)NC(=O)c2cc(NC(=O)[C@H](CCCNC(=N)N)NC(=O)c3cc(NC(=O)[C@H](CCCNC(=N)N)NC(=O)c4cc(NC(=O)[C@@H](N)CCCNC(=N)N)ccc4OC)ccc3OC)ccc2OC)cc1C(=O)N[C@@H](Cc1c[nH]c2ccccc12)C(=O)O [Compound 309] | 2270 nM | 0.301 µM | 131 nM | 137 nM | 120 nM | ~100 µg/mL (≈ 70.1 µM) | 1000 µg/mL (≈ 701 µM) | 50% |  | 1000 µg/mL (≈ 701 µM) | 50% |  |  |  |  |  | 
COc1cc(OC)c(C(=O)N[C@H]2CC[C@H](NC(=O)c3ccc(OCCCCCNC(=N)N)cc3OCCCCCNC(=N)N)CC2)cc1C(=O)N[C@H]1CC[C@H](NC(=O)c2ccc(OCCCCCNC(=N)N)cc2OCCCCCNC(=N)N)CC1 [Compound 336] | 1430 nM and 1220 nM |  | 79 nM and 91 nM | 133 nM and 84 nM | 91 nM and 63 nM | > 1000 µg/mL | 505 µg/mL (≈ 421 µM) |  |  | 390 µg/mL (≈ 325 µM) |  | significant reductions in anti-Factor Xa activity | in vivo efficacy versus fondaparinux | superior anti-fondaparinux activity |  |  | 
protamine sulfate [reference compound] |  |  |  |  |  |  |  |  | >1000 µg/mL |  |  |  |  |  |  | >1000 µg/mL | >1000 µg/mL

Second part, led by results:

EC50 (Unfractionated heparin) | EC50 (UFH) | EC50 (enoxaparin [3]) | EC50 (tinzaparin) | EC50 (fondaparinux [4]) | Compound | EC50 [1] | EC50 at 1 h [2] | Cytotoxicity HepG2, percent printed in parentheses after the concentration (HepG2 cells) | Hemolysis EC50 [1] | EC50 at 1 h [5] | Cytotoxicity 3T3, percent printed in parentheses after the concentration (NIH/3T3 cells) | reduction of Factor Xa (anti-factor Xa) levels after fondaparinux (fondaparinux [6]; fondaparinux 0.5 mg/kg IV, test agent 2 and 5 mg/kg IV) | in vivo efficacy versus fondaparinux (summary) (fondaparinux [6]; in vivo) | Potent LMWH-antagonists with superior anti-fondaparinux activity (summary) (fondaparinux [4]) | in vivo efficacy versus LMWH by anti-factor Xa activity (summary) (enoxaparin [7]) | Cytotoxicity HepG2 EC50 (HepG2 cells; one hour in serum-free media) | Cytotoxicity 3T3 EC50 (NIH/3T3 cells; one hour in serum-free media)
720 nM | 0.292 µM | 119 nM | 115 nM | 208 nM | COC(=O)c1cccc(C(=O)N[C@@H](CCCCN)C(=O)Nc2ccc(OC)c(C(=O)N[C@@H](CCCCN)C(=O)Nc3ccc(OC)c(C(=O)N[C@@H](CCCCN)C(=O)Nc4ccc(OC)c(C(=O)N[C@@H](CCCCN)C(=O)Nc5ccc(OC)c(C(N)=O)c5)c4)c3)c2)c1 [Compound 340] |  | 1000 µg/mL (≈ 776 µM) | 60% |  | 1000 µg/mL (≈ 776 µM) | 60% |  |  |  |  |  | 
2400 nM | 0.153 µM | 120 nM | 67 nM | 263 nM | COc1ccc(NC(=O)[C@H](CCCCN)NC(=O)c2cc(NC(=O)[C@H](CCCCN)NC(=O)c3cc(NC(=O)[C@H](CCCCN)NC(=O)c4cc(NC(=O)[C@@H](N)CCCCN)ccc4OC)ccc3OC)ccc2OCC(=O)O)cc1C(=O)N[C@@H](Cc1c[nH]c2ccccc12)C(N)=O [Compound 348] | > 1000 µg/mL | > 1000 µg/mL |  |  | > 1000 µg/mL |  |  |  | superior anti-fondaparinux activity | superior to protamine |  | 
1030 nM | 0.134 µM | 67 nM | 113 nM | 1060 nM | COc1cc(OC)c(C(=O)N[C@H]2CC[C@@H](NC(=O)c3cc(C(=O)NCCN(C)C)c(OCCCCCN)cc3OCCCCCN)CC2)cc1C(=O)N[C@H]1CC[C@@H](NC(=O)c2cc(C(=O)NCCN(C)C)c(OCCCCCN)cc2OCCCCCN)CC1 [Compound 363] | > 1000 µg/mL | > 1000 µg/mL |  |  | 500 µg/mL (≈ 397 µM) |  |  |  | superior anti-fondaparinux activity | superior to protamine |  | 
350 nM | 0.411 µM | 143 nM | 176 nM | 3860 nM | COc1cc(OC)c(C(=O)N[C@H]2CC[C@@H](NC(=O)c3ccc(OCCCCCN)cc3OCCCCCN)CC2)cc1C(=O)N[C@H]1CC[C@@H](NC(=O)c2ccc(OCCCCCN)cc2OCCCCCN)CC1 [Compound 369] | > 1000 µg/mL | 280 µg/mL (≈ 271 µM) |  |  | 100 µg/mL (≈ 97 µM) |  |  |  |  | superior to protamine |  | 
